Here are results for 22 compounds from BindingDB's records for doi:10.1021/jm00024a010 (Boehringer Ingelheim Pharmaceuticals, 1995).

Test [1] addresses T1, Gag-Pol polyprotein [600-1027,R876K]/[600-1155] (Human immunodeficiency virus 1, UniProt P03366, R876K).
T1 construct: 600-1027; 600-1155
Put plainly: HIV-1 RT Assay.

The target of test [2] is T2, Gag-Pol polyprotein [600-1027,Y780C]/[600-1155,Y780C] (Human immunodeficiency virus 1, UniProt P03366, Y780C).
T2 construct: 600-1027; 600-1155
Put plainly: HIV-1 RT Assay.

The IC50 is the concentration needed to halve the response being measured. A low value points to greater potency. Regarding `CCN1c2ncccc2C(=O)N(C)c2ccc(-c3cccc(N)c3)nc21` [5,11-dihydro-11-ethyl-5-methyl-2-(3-aminophenyl)-6H-dipyrido[3,2-b:2 ,3-e][1,4]diazepin-6-one], in test [1], the half-inhibitory concentration (IC50) amounted to 70 nM. With `CCN1c2ncccc2C(=O)N(C)c2ccc(=O)[nH]c21` [2-ethyl-5-hydroxy-9-methyl-2,4,9,15-tetraazatricyclo[9.4.0.0^{3,8}]pentadeca-1(11),3,5,7,12,14-hexaen-10-one], in test [2], the IC50 is > 1000 nM.

In the case of `CCN1c2ncccc2C(=O)N(C)c2ccc(-c3ccccn3)nc21` [2-ethyl-9-methyl-5-(pyridin-2-yl)-2,4,9,15-tetraazatricyclo[9.4.0.0^{3,8}]pentadeca-1(11),3,5,7,12,14-hexaen-10-one], it took 180 nM to reach half-maximal inhibition in test [1] (IC50). With `CCN1c2ncccc2C(=O)Nc2c(C)cc(C(C)C)nc21` [2-ethyl-7-methyl-5-(propan-2-yl)-2,4,9,15-tetraazatricyclo[9.4.0.0^{3,8}]pentadeca-1(11),3,5,7,12,14-hexaen-10-one], the IC50 in test [2] (pH 7.8, 25 °C) was > 1000 nM.

`CCN1c2ncccc2C(=O)N(C)c2ccc(-c3cnco3)nc21` [2-ethyl-9-methyl-5-(1,3-oxazol-5-yl)-2,4,9,15-tetraazatricyclo[9.4.0.0^{3,8}]pentadeca-1(11),3,5,7,12,14-hexaen-10-one]: the IC50 in test [1] stood at 220 nM; in test [2] it was 820 nM.

For `CCC=Nc1ccc2c(n1)N(CC)c1ncccc1C(=O)N2C`, the IC50 in test [1] is 390 nM; in test [2], > 1000 nM. Take `CCN1c2ncccc2C(=O)Nc2c(C)cc(NCCCO)nc21` [2-ethyl-5-[(3-hydroxypropyl)amino]-7-methyl-2,4,9,15-tetraazatricyclo[9.4.0.0^{3,8}]pentadeca-1(11),3,5,7,12,14-hexaen-10-one]: the IC50 in test [2] was > 1000 nM.

`CCN1c2ncccc2C(=O)Nc2c(C)cc(C(C)(C)C)nc21` [5-tert-butyl-2-ethyl-7-methyl-2,4,9,15-tetraazatricyclo[9.4.0.0^{3,8}]pentadeca-1(11),3,5,7,12,14-hexaen-10-one]: the IC50 was > 1000 nM in test [1] (pH 7.8, 25 °C) and > 1000 nM in test [2] (pH 7.8, 25 °C).

Turning to `CCN1c2ncccc2C(=O)N(C)c2ccc(-c3ccsc3)nc21` [2-ethyl-9-methyl-5-(thiophen-3-yl)-2,4,9,15-tetraazatricyclo[9.4.0.0^{3,8}]pentadeca-1(11),3,5,7,12,14-hexaen-10-one], in test [1], the IC50 was found to be 100 nM. Regarding `CN1C(=O)c2cccnc2N(C2CC2)c2nc(Cl)ccc21` [5-chloro-2-cyclopropyl-9-methyl-2,4,9,15-tetraazatricyclo[9.4.0.0^{3,8}]pentadeca-1(11),3,5,7,12,14-hexaen-10-one], the IC50 in test [1] (pH 7.8, 25 °C) worked out at 90 nM.

As to `CCN1c2ncccc2C(=O)Nc2c(C)cc(N3CCSCC3)nc21` [2-ethyl-7-methyl-5-(thiomorpholin-4-yl)-2,4,9,15-tetraazatricyclo[9.4.0.0^{3,8}]pentadeca-1(11),3,5,7,12,14-hexaen-10-one], the IC50 in test [2] is > 1000 nM. On to `CCN1c2ncccc2C(=O)N(C)c2ccc(-c3ncco3)nc21` [2-ethyl-9-methyl-5-(1,3-oxazol-2-yl)-2,4,9,15-tetraazatricyclo[9.4.0.0^{3,8}]pentadeca-1(11),3,5,7,12,14-hexaen-10-one], for which the IC50 was 110 nM in test [1] and 560 nM in test [2]. Consider `CCN1c2ncccc2C(=O)N(C)c2ccc(-c3nccs3)nc21` [5,11-dihydro-11-ethyl-5-methyl-2-(2-thiazolyl)-6H-dipyrido[3,2-b:2 ,3-e][1,4]diazepin-6-one], for which the values for the IC50 in test [1] and in test [2] were 380 nM and 1100 nM, respectively. Regarding `CCN1c2ncccc2C(=O)Nc2c(C)cc(SC)nc21` [2-ethyl-7-methyl-5-(methylsulfanyl)-2,4,9,15-tetraazatricyclo[9.4.0.0^{3,8}]pentadeca-1(11),3,5,7,12,14-hexaen-10-one], the IC50 in test [2] is > 1000 nM. In turn, `CCN1c2ncccc2C(=O)N(C)c2cccnc21` yielded an IC50 in test [1] (pH 7.8, 25 °C) of 130 nM. For the compound `CCN1c2ncccc2C(=O)N(C)c2ccc(N)nc21` [5-amino-2-ethyl-9-methyl-2,4,9,15-tetraazatricyclo[9.4.0.0^{3,8}]pentadeca-1(11),3,5,7,12,14-hexaen-10-one], the IC50 in test [1] and in test [2] was > 1000 nM throughout. `CCN1c2ncccc2C(=O)N(C)c2ccc(-c3cccc(O)c3)nc21` [2-ethyl-5-(3-hydroxyphenyl)-9-methyl-2,4,9,15-tetraazatricyclo[9.4.0.0^{3,8}]pentadeca-1(11),3,5,7,12,14-hexaen-10-one] displayed an IC50 in test [1] of 100 nM. Consider `CCN1c2ncccc2C(=O)N(C)c2ccc(-c3cncs3)nc21` [2-ethyl-9-methyl-5-(1,3-thiazol-5-yl)-2,4,9,15-tetraazatricyclo[9.4.0.0^{3,8}]pentadeca-1(11),3,5,7,12,14-hexaen-10-one], for which the concentration for half-maximal inhibition (IC50) in test [1] was 100 nM; in test [2], 240 nM. With `CCN1c2ncccc2C(=O)N(C)c2ccc(N3CCCCC3)nc21` [2-ethyl-9-methyl-5-(piperidin-1-yl)-2,4,9,15-tetraazatricyclo[9.4.0.0^{3,8}]pentadeca-1(11),3,5,7,12,14-hexaen-10-one], the IC50 in test [2] was > 1000 nM.

On to `CCN1c2ncccc2C(=O)Nc2c(C)cc(NCCO)nc21` [2-ethyl-5-[(2-hydroxyethyl)amino]-7-methyl-2,4,9,15-tetraazatricyclo[9.4.0.0^{3,8}]pentadeca-1(11),3,5,7,12,14-hexaen-10-one], for which the IC50 in test [2] was > 1000 nM.

`CCN1c2ncccc2C(=O)Nc2c(C)cc(N(C)CCO)nc21` [2-ethyl-5-[(2-hydroxyethyl)(methyl)amino]-7-methyl-2,4,9,15-tetraazatricyclo[9.4.0.0^{3,8}]pentadeca-1(11),3,5,7,12,14-hexaen-10-one]: in test [2], the IC50 was > 1000 nM.

For the compound `CCN1c2ncccc2C(=O)Nc2c(C)cc(C)nc21` [2-ethyl-5,7-dimethyl-2,4,9,15-tetraazatricyclo[9.4.0.0^{3,8}]pentadeca-1(11),3,5,7,12,14-hexaen-10-one], the IC50 in test [2] (pH 7.8, 25 °C) was > 1000 nM.
